Results taken from patent US8859625B2, “Methods to prepare penta-1,4-dien-3-ones and substituted cyclohexanones and derivatives with antitumoral and antiparasitic properties, the compounds and their uses” (Universidade Bandeirante de Sao Paulo-Academia, Paulista …, priority 2006, dated 2014).
Entries after “also recorded” stand apart in the source; their conditions may differ.

How the values were obtained:
[1] = system: Leishmania (L) amazonensis promastigote forms (isolate LV79); assay: Promastigote proliferation in RPMI medium, Neubauer chamber count; type: cell-based
Protocol: (§1) Compounds are solubilized with dimethyl sulfoxide (DMSO) to produce a stock solution from which samples with different concentrations are obtained, by adding the culture medium in sufficient volume as required to attain the first desired concentration with the other concentrations being obtained by serial dilution of this first one, at ratio 2. The cultures are incubated at 22° C. or 34° C. for promastigotes and amastigotes, respectively.
(§2) As a positive control for parasite viability evaluation, only culture medium and parasite, without any other addition, were used. As toxicity control for the solvent present in compound composition, parasite forms were incubated with DMSO diluted in culture medium.
(§3) To quantify the promastigotes, Neubauer chambers are used and the cultures are quantified every 24 hours throughout the incubation period scheduled for each experiment. The samples are prepared from an initial dilution of 20 μL of the culture into 180 μL of the saline solution formulated (PBS+2% formaldehyde) to obtain a 1/10 dilution. Whenever necessary, serial dilutions may be performed from the first dilution. For all experiments, parasite forms should be incubated with several HB-1 concentrations, its respective controls with DMSO (we should have in mind that the initial HB-1 stock solution was prepared with DMSO and that its toxicity in relation to the parasite forms have to be assessed) and the normal culture, without any component additioned to the medium. Countings are performed as duplicates, by two different people and the final result is expressed as the arithmetic average from the two countings. The same procedure is employed to quantify the amastigote forms.
Leishmania (L) amazonensis promastigote forms (isolade LV79, 1st passage in culture medium, day 7 of culture, stationary phase) are incubated at a proportion of 10^6 promastigotes/mL of RPMI medium, 3.0 mL final volume, in the presence of different concentrations of HB-1 and of the respective controls in DMSO. The effect of HB-1 compound on the proliferation of Leishmania (L) amazonensis promastigotes-RPMI medium is shown in the next Table and in FIG. 34.

[2] = system: promastigote forms of Leishmania (L) amazonensis (isolate LV79); assay: Promastigote proliferation in Warren medium, Neubauer chamber count; type: cell-based
Protocol: as §1, §2, §3
Promastigote forms of Leishmania (L) amazonensis (isolate LV79, 8th passage for the culture medium, day 7 of culture, stationary phase) are incubated in a proportion of 10^6 promastigotes/mL in Warren medium, 3.0 mL final volume, in the presence of different concentrations of HB-1 and of the respective controls in equivalent volume of DMSO and culture medium, as positive control for proliferation and viability. The effect of HB-1 on the promastigotes of Leishmania amazonensis cultivated in Warren medium is shown in the next Table and FIG. 33.

B16F10 melanoma = assay: Histological analysis of mice bearing B16F10 dorsal melanoma; type: in vivo, C57BL/6J mice; conditions: diluted in Miglyol 810, 1.15 μg/kg intraperitoneal
Description: Animals are sacrificed by cervical displacement and the organ fragments were collected from the areas next to the tumoral region, stored in vials containing 10% formaldehyde, and fixed to be submitted to the routine histological processing (PARDI, P C; SIMÕES, M J, BINIVIGNAT, G. O—Ultrastructural study of the remodeling of the stroma of persistent-estrous rats—Rev. Chil. Cienc. Méd. Biol 3(2):61-65, 1993).
Melanoma B16F10 cell line are implanted at 5×10^4 cells per animal, the ideal dose to obtain the expected results and already proclaimed for this chosen type of animal.
All animals are treated after Day 14 of tumor implant and, as a result, the sequence of necropsis initiates at Day 15.
To visualize the results of HB-1 administration, animals are allocated into the following groups:
2—HB-1 group, treated with HB-1 diluted in Miglyol 810®, kept under ad libitum feed and water.
In both cases, the standard administered dose is of 1.15 μg/kg, via intraperitoneal as the elicited administration route.
Animals are sacrificed by cervical displacement and necropsis is performed with the material immediately collected and transferred to vials containing 10% formaldehyde and, after a 1 to 2 day period, submitted to a routine histological technique Hystology Technique Manual (Manual De Técnicas Para Histologia—Normal E Patológica: Castro De Tolosa, Rodrigues, Behmer E Freitas Neto, Editora Manole 2003).
After the fixation procedure to the thin plate, the hematoxylin/eosin staining method—Hystology Technique Manual (Manual (Manual De Técnicas Para Histologia—Normal E Patológica: Castro De Tolosa, Rodrigues, Behmer E Freitas Neto, Editora Manole 2003). is applied as it presents good results for tissue and cell morphologic evaluation, mainly to the components in each block.
After staining, the thin plates are mounted, then analysed by a ZEISS microscopy with a AXIOCAM-MRC3 trade mark digital camera, and the resulting pictures processed by a AXIOVISON REL 4.2 (Carl Zeiss Inc.) software, registered by a computer.

COc1cc(C=CC(=O)C=Cc2ccc(O)c(OC)c2)ccc1O [HB-1, 1,5-Bis-(4-hydroxy-3-methoxy-phenyl)-penta-1,4-dien-3-one]
N^o. of promastigotes/mL (×10^6) ([1]; HB-1 3.12 μg/mL, 24 hours): 1.6 ×10^6 promastigotes/mL | N^o. of promastigotes/mL (×10^6) ([1]; HB-1 3.12 μg/mL, 48 hours): 2.1 ×10^6 promastigotes/mL | N^o. of promastigotes/mL (×10^6) ([1]; HB-1 3.12 μg/mL, 72 hours): 2.1 ×10^6 promastigotes/mL | N^o. of promastigotes/mL (×10^6) ([1]; HB-1 3.12 μg/mL, 144 hours): 2.4 ×10^6 promastigotes/mL | N^o. of promastigotes/mL (×10^6) ([1]; HB-1 6.25 μg/mL, 24 hours): 0.8 ×10^6 promastigotes/mL | N^o. of promastigotes/mL (×10^6) ([1]; HB-1 6.25 μg/mL, 48 hours): 1.0 ×10^6 promastigotes/mL | N^o. of promastigotes/mL (×10^6) ([1]; HB-1 6.25 μg/mL, 72 hours): 0.7 ×10^6 promastigotes/mL | N^o. of promastigotes/mL (×10^6) ([1]; HB-1 6.25 μg/mL, 144 hours): 0.3 ×10^6 promastigotes/mL | N^o. of promastigotes/mL (×10^6) ([1]; HB-1 12.5 μg/mL, 24 hours): 0.7 ×10^6 promastigotes/mL | N^o. of promastigotes/mL (×10^6) ([1]; HB-1 12.5 μg/mL, 48 hours): 0 ×10^6 promastigotes/mL | N^o. of promastigotes/mL (×10^6) ([1]; HB-1 12.5 μg/mL, 72 hours): 0 ×10^6 promastigotes/mL | N^o. of promastigotes/mL (×10^6) ([1]; HB-1 12.5 μg/mL, 144 hours): 0 ×10^6 promastigotes/mL | N^o. of promastigotes/mL (×10^6) ([1]; HB-1 25 μg/mL, 24 hours): 0.5 ×10^6 promastigotes/mL | N^o. of promastigotes/mL (×10^6) ([1]; HB-1 25 μg/mL, 48 hours): 0 ×10^6 promastigotes/mL | N^o. of promastigotes/mL (×10^6) ([1]; HB-1 25 μg/mL, 72 hours): 0 ×10^6 promastigotes/mL | N^o. of promastigotes/mL (×10^6) ([1]; HB-1 25 μg/mL, 144 hours): 0 ×10^6 promastigotes/mL | N^o. of promastigotes/mL (×10^6) ([1]; HB-1 50 μg/mL, 24 hours): 0.1 ×10^6 promastigotes/mL | N^o. of promastigotes/mL (×10^6) ([1]; HB-1 50 μg/mL, 48 hours): 0 ×10^6 promastigotes/mL | N^o. of promastigotes/mL (×10^6) ([1]; HB-1 50 μg/mL, 72 hours): 0 ×10^6 promastigotes/mL | N^o. of promastigotes/mL (×10^6) ([1]; HB-1 50 μg/mL, 144 hours): 0 ×10^6 promastigotes/mL | inhibitory effect (=mortality) ([1]; HB-1 100 μg/mL to 12.5 μg/mL, 48 hours): 100% | N^o. of promastigotes/mL (×10^6) ([1]; HB-1 100 μg/mL, 24 hours): 0 ×10^6 promastigotes/mL | N^o. of promastigotes/mL (×10^6) ([1]; HB-1 100 μg/mL, 48 hours): 0 ×10^6 promastigotes/mL | N^o. of promastigotes/mL (×10^6) ([1]; HB-1 100 μg/mL, 72 hours): 0 ×10^6 promastigotes/mL | N^o. of promastigotes/mL (×10^6) ([1]; HB-1 100 μg/mL, 144 hours): 0 ×10^6 promastigotes/mL | N^o. of promastigotes/mL (×10^6) ([2]; HB-1 3.12 μg/mL, 24 hours, Warren medium): 3.0 ×10^6 promastigotes/mL | N^o. of promastigotes/mL (×10^6) ([2]; HB-1 3.12 μg/mL, 48 hours, Warren medium): 5.95 ×10^6 promastigotes/mL | N^o. of promastigotes/mL (×10^6) ([2]; HB-1 3.12 μg/mL, 72 hours, Warren medium): 10 ×10^6 promastigotes/mL | N^o. of promastigotes/mL (×10^6) ([2]; HB-1 3.12 μg/mL, 96 hours, Warren medium): 11 ×10^6 promastigotes/mL | N^o. of promastigotes/mL (×10^6) ([2]; HB-1 3.12 μg/mL, 120 hours, Warren medium): 17 ×10^6 promastigotes/mL | N^o. of promastigotes/mL (×10^6) ([2]; HB-1 6.25 μg/mL, 24 hours, Warren medium): 2.5 ×10^6 promastigotes/mL | N^o. of promastigotes/mL (×10^6) ([2]; HB-1 6.25 μg/mL, 48 hours, Warren medium): 3.95 ×10^6 promastigotes/mL | N^o. of promastigotes/mL (×10^6) ([2]; HB-1 6.25 μg/mL, 72 hours, Warren medium): 7.15 ×10^6 promastigotes/mL | N^o. of promastigotes/mL (×10^6) ([2]; HB-1 6.25 μg/mL, 96 hours, Warren medium): 13.0 ×10^6 promastigotes/mL | N^o. of promastigotes/mL (×10^6) ([2]; HB-1 6.25 μg/mL, 120 hours, Warren medium): 18.6 ×10^6 promastigotes/mL | effect on promastigotes in words ([2]; HB-1 12.5 μg/mL to 3.12 μg/mL, Warren medium): sub-lethal | N^o. of promastigotes/mL (×10^6) ([2]; HB-1 12.5 μg/mL, 24 hours, Warren medium): 2.55 ×10^6 promastigotes/mL | N^o. of promastigotes/mL (×10^6) ([2]; HB-1 12.5 μg/mL, 48 hours, Warren medium): 2.25 ×10^6 promastigotes/mL | N^o. of promastigotes/mL (×10^6) ([2]; HB-1 12.5 μg/mL, 72 hours, Warren medium): 3.9 ×10^6 promastigotes/mL | N^o. of promastigotes/mL (×10^6) ([2]; HB-1 12.5 μg/mL, 96 hours, Warren medium): 5.9 ×10^6 promastigotes/mL | N^o. of promastigotes/mL (×10^6) ([2]; HB-1 12.5 μg/mL, 120 hours, Warren medium): 18.3 ×10^6 promastigotes/mL | N^o. of promastigotes/mL (×10^6) ([2]; HB-1 25 μg/mL, 24 hours, Warren medium): 3.25 ×10^6 promastigotes/mL | N^o. of promastigotes/mL (×10^6) ([2]; HB-1 25 μg/mL, 48 hours, Warren medium): 1.8 ×10^6 promastigotes/mL | N^o. of promastigotes/mL (×10^6) ([2]; HB-1 25 μg/mL, 72 hours, Warren medium): 0.4 ×10^6 promastigotes/mL | N^o. of promastigotes/mL (×10^6) ([2]; HB-1 25 μg/mL, 96 hours, Warren medium): 0.1 ×10^6 promastigotes/mL | N^o. of promastigotes/mL (×10^6) ([2]; HB-1 25 μg/mL, 120 hours, Warren medium): 0 ×10^6 promastigotes/mL | time of culture to 100% mortality ([2]; HB-1 25 μg/mL, Warren medium): 120 h | N^o. of promastigotes/mL (×10^6) ([2]; HB-1 50 μg/mL, 24 hours, Warren medium): 2.1 ×10^6 promastigotes/mL | N^o. of promastigotes/mL (×10^6) ([2]; HB-1 50 μg/mL, 48 hours, Warren medium): 0.4 ×10^6 promastigotes/mL | N^o. of promastigotes/mL (×10^6) ([2]; HB-1 50 μg/mL, 72 hours, Warren medium): 0.1 ×10^6 promastigotes/mL | N^o. of promastigotes/mL (×10^6) ([2]; HB-1 50 μg/mL, 96 hours, Warren medium): 0 ×10^6 promastigotes/mL | N^o. of promastigotes/mL (×10^6) ([2]; HB-1 50 μg/mL, 120 hours, Warren medium): 0 ×10^6 promastigotes/mL | time of culture to 100% mortality ([2]; HB-1 50 μg/mL, Warren medium): 96 h | N^o. of promastigotes/mL (×10^6) ([2]; HB-1 100 μg/mL, 24 hours, Warren medium): 1.15 ×10^6 promastigotes/mL | N^o. of promastigotes/mL (×10^6) ([2]; HB-1 100 μg/mL, 48 hours, Warren medium): 0.2 ×10^6 promastigotes/mL | N^o. of promastigotes/mL (×10^6) ([2]; HB-1 100 μg/mL, 72 hours, Warren medium): 0 ×10^6 promastigotes/mL | N^o. of promastigotes/mL (×10^6) ([2]; HB-1 100 μg/mL, 96 hours, Warren medium): 0 ×10^6 promastigotes/mL | N^o. of promastigotes/mL (×10^6) ([2]; HB-1 100 μg/mL, 120 hours, Warren medium): 0 ×10^6 promastigotes/mL | time of culture to 100% mortality ([2]; HB-1 100 μg/mL, Warren medium): 72 h | inhibition at 25 µg/mL ([2]; Leishmania, 72 h, read-out: inhibition of parasite proliferation): 81% | inhibition at 50 µg/mL ([2]; Leishmania, HB-1 50 μg/mL, after 72 hours, Warren medium, read-out: inhibition of parasite proliferation): 95.8% | inhibition at 100 µg/mL ([2]; Leishmania, HB-1 100 μg/mL, after 72 hours, Warren medium, read-out: inhibition of parasite proliferation): 100% | leukocytic infiltrate in dorsal tumor (B16F10 melanoma; 14 day treatment): presence of a leukocytic infiltrate in the peri- and intratumoral portions | lung parenchyma alterations (B16F10 melanoma; compared to control group): No alterations of thickness or bronchium epithelium rupture | metastatic lesions (B16F10 melanoma; compared to control group): no metastatic lesions were found; also recorded: presence of metastatic masses or nodules was not observed
